# Source: US20240043404A1 (AbbVie Inc., priority 2009, published 2024)
# Tested on: RS4;11 cells
# Test: RS4;11 cell viability assay (CellTiter Glo);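 further: acute lymphoblastic leukemia line RS4,11, EC50 derived from percentage of viable cells after treatment relative to untreated controls, cell killing taken as a measure of Bcl-2 inhibition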
# Assay type: cell-based, human
# Conditions: Homo sapiens, RS4-11, 48 h, 50,000 cells per well, 10% human serum, 48 hours; read-out: RS4; 11 EC50 Values
# Method: The acute lymphoblastic leukemia (ALL) cell line RS4;11 was used as the primary human cell line to assess the cellular activity of Bcl-2 selective agents in vitro and their efficacy in vivo.
# Cell cytotoxicity EC50 values were assessed using CellTiter Glo (Promega) according to the manufacturer's recommendations. The EC50 values were determined as a percentage of viable cells following treatment compared to the untreated control cells.
row,SMILES,EC50 [nM]
1,"CC1(C)CCC(CN2CCN(c3ccc(C(=O)NS(=O)(=O)c4ccc(NCC5CN(C(CF)CF)C5)c([N+](=O)[O-])c4)c(Oc4cnc5[nH]ccc5c4)c3)CC2)=C(c2ccc(Cl)cc2)C1 [Example 161, 4-(4-{[2-(4-chlorophenyl)-4,4-dimethylcyclohex-1-en-1-yl]methyl}piperazin-1-yl)-N-({4-[({1-[2-fluoro-1-(fluoromethyl)ethyl]azetidin-3-yl}methyl)amino]-3-nitrophenyl}sulfonyl)-2-(1H-pyrrolo[2,3-b]pyridin-5-yloxy)benzamide]",34.6
2,"CC(C)N1CCC2(CCC(c3ccc(Cl)cc3)=C(CN3CCN(c4ccc(C(=O)NS(=O)(=O)c5ccc(NCC6CCOCC6)c([N+](=O)[O-])c5)c(Oc5cnc6[nH]ccc6c5)c4)CC3)C2)CC1 [Example 266, 4-(4-{[9-(4-chlorophenyl)-3-isopropyl-3-azaspiro[5.5]undec-8-en-8-yl]methyl}piperazin-1-yl)-N-({3-nitro-4-[(tetrahydro-2H-pyran-4-ylmethyl)amino]phenyl}sulfonyl)-2-(1H-pyrrolo[2,3-b]pyridin-5-yloxy)benzamide]",7.29
3,"CC1(C)CCC(CN2CCN(c3ccc(C(=O)NS(=O)(=O)c4ccc(NC[C@H]5CCCOC5)c([N+](=O)[O-])c4)c(Oc4ccc5[nH]ccc5c4)c3)CC2)=C(c2ccc(Cl)cc2)C1 [Example 22, 4-(4-{[2-(4-chlorophenyl)-4,4-dimethylcyclohex-1-en-1-yl]methyl}piperazin-1-yl)-2-(1H-indol-5-yloxy)-N-[(3-nitro-4-{[(3R)-tetrahydro-2H-pyran-3-ylmethyl]amino}phenyl)sulfonyl]benzamide]",85
4,"CC1(C)CCC(CN2CCN(c3ccc(C(=O)NS(=O)(=O)c4cnc(OC5CCN(C6CCOCC6)CC5)c(C#N)c4)c(Oc4cnc5[nH]ccc5c4)c3)CC2)=C(c2ccc(Cl)cc2)C1 [Example 84, 4-(4-{[2-(4-chlorophenyl)-4,4-dimethylcyclohex-1-en-1-yl]methyl}piperazin-1-yl)-N-({5-cyano-6-[(1-tetrahydro-2H-pyran-4-ylpiperidin-4-yl)oxy]pyridin-3-yl}sulfonyl)-2-(1H-pyrrolo[2,3-b]pyridin-5-yloxy)benzamide]",158
5,"CC1(C)CCC(CN2CCN(c3ccc(C(=O)NS(=O)(=O)c4cnc(NCC5CCOCC5)c([N+](=O)[O-])c4)c(Oc4cnc5[nH]ccc5c4)c3)CC2)=C(c2ccc(Cl)cc2)C1 [Example 364, 4-(4-{[2-(4-chlorophenyl)-4,4-dimethylcyclohex-1-en-1-yl]methyl}piperazin-1-yl)-N-({5-nitro-6-[(tetrahydro-2H-pyran-4-ylmethyl)amino]pyridin-3-yl}sulfonyl)-2-(1H-pyrrolo[2,3-b]pyridin-5-yloxy)benzamide]",11.2
6,"CC1(C)CCC(CN2CCN(c3ccc(C(=O)NS(=O)(=O)c4cnc(OCC5CCOCC5)c(C(N)=O)c4)c(Oc4cnc5[nH]ccc5c4)c3)CC2)=C(c2ccc(Cl)cc2)C1 [Example 46, 5-({[4-(4-{[2-(4-chlorophenyl)-4,4-dimethylcyclohex-1-en-1-yl]methyl}piperazin-1-yl)-2-(1H-pyrrolo[2,3-b]pyridin-5-yloxy)benzoyl]amino}sulfonyl)-2-(tetrahydro-2H-pyran-4-ylmethoxy)nicotinamide]",> 5000
7,"CC1(C)CCC(CN2CCN(c3ccc(C(=O)NS(=O)(=O)c4cnc(OC[C@H]5CN(CC#N)CCO5)c(Cl)c4)c(Oc4cnc5[nH]ccc5c4)c3)CC2)=C(c2ccc(Cl)cc2)C1 [Example 246, N-[(5-chloro-6-{[(2R)-4-(cyanomethyl)morpholin-2-yl]methoxy}pyridin-3-yl)sulfonyl]-4-(4-{[2-(4-chlorophenyl)-4,4-dimethylcyclohex-1-en-1-yl]methyl}piperazin-1-yl)-2-(1H-pyrrolo[2,3-b]pyridin-5-yloxy)benzamide]",402
8,"CC1(C)CCC(CN2CCN(c3ccc(C(=O)NS(=O)(=O)c4ccc(NCC5CN(CC#N)CCO5)c([N+](=O)[O-])c4)c(Oc4cnc5[nH]ccc5c4)c3)CC2)=C(c2ccc(Cl)cc2)C1 (centres unmarked) [Example 214, 4-(4-{[2-(4-chlorophenyl)-4,4-dimethylcyclohex-1-en-1-yl]methyl}piperazin-1-yl)-N-{[4-({[4-(cyanomethyl)morpholin-2-yl]methyl}amino)-3-nitrophenyl]sulfonyl}-2-(1H-pyrrolo[2,3-b]pyridin-5-yloxy)benzamide]",4.38
9,"CC1(C)CCC(CN2CCN(c3ccc(C(=O)NS(=O)(=O)c4cnc(OC[C@@H]5CN(C6CC6)CCO5)c(Cl)c4)c(Oc4cnc5[nH]ccc5c4)c3)CC2)=C(c2ccc(Cl)cc2)C1 [Example 314, N-[(5-chloro-6-{[(2S)-4-cyclopropylmorpholin-2-yl]methoxy}pyridin-3-yl)sulfonyl]-4-(4-{[2-(4-chlorophenyl)-4,4-dimethylcyclohex-1-en-1-yl]methyl}piperazin-1-yl)-2-(1H-pyrrolo[2,3-b]pyridin-5-yloxy)benzamide]",660
10,"COc1ccc(CNc2ccc(S(=O)(=O)NC(=O)c3ccc(N4CCN(CC5=C(c6ccc(Cl)cc6)CC(C)(C)CC5)CC4)cc3Oc3cnc4[nH]ccc4c3)cc2[N+](=O)[O-])cc1 [Example 174, 4-(4-{[2-(4-chlorophenyl)-4,4-dimethylcyclohex-1-en-1-yl]methyl}piperazin-1-yl)-N-({4-[(4-methoxybenzyl)amino]-3-nitrophenyl}sulfonyl)-2-(1H-pyrrolo[2,3-b]pyridin-5-yloxy)benzamide]",126
11,"CC1(C)CCC(CN2CCN(c3ccc(C(=O)NS(=O)(=O)c4cnc(OCC5(F)CCOCC5)c(C(F)(F)F)c4)c(Oc4cnc5[nH]ccc5c4)c3)CC2)=C(c2ccc(Cl)cc2)C1 [Example 208, 4-(4-{[2-(4-chlorophenyl)-4,4-dimethylcyclohex-1-en-1-yl]methyl}piperazin-1-yl)-N-{[6-[(4-fluorotetrahydro-2H-pyran-4-yl)methoxy]-5-(trifluoromethyl)pyridin-3-yl]sulfonyl}-2-(1H-pyrrolo[2,3-b]pyridin-5-yloxy)benzamide]",121
12,"CC(=O)N1CCOC(CNc2ccc(S(=O)(=O)NC(=O)c3ccc(N4CCN(CC5=C(c6ccc(Cl)cc6)CC(C)(C)CC5)CC4)cc3Oc3cnc4[nH]ccc4c3)cc2[N+](=O)[O-])C1 (centres unmarked) [Example 136, N-[(4-{[(4-acetylmorpholin-2-yl)methyl]amino}-3-nitrophenyl)sulfonyl]-4-(4-{[2-(4-chlorophenyl)-4,4-dimethylcyclohex-1-en-1-yl]methyl}piperazin-1-yl)-2-(1H-pyrrolo[2,3-b]pyridin-5-yloxy)benzamide]",2.96
13,"CC1(C)CCC(CN2CCN(c3ccc(C(=O)NS(=O)(=O)c4ccc(NCC5CCOCC5)c(Cl)c4)c(Oc4cnc5[nH]ccc5c4)c3)CC2)=C(c2ccc(Cl)cc2)C1 [Example 306, 4-(4-{[2-(4-chlorophenyl)-4,4-dimethylcyclohex-1-en-1-yl]methyl}piperazin-1-yl)-N-({3-chloro-4-[(tetrahydro-2H-pyran-4-ylmethyl)amino]phenyl}sulfonyl)-2-(1H-pyrrolo[2,3-b]pyridin-5-yloxy)benzamide]",553
14,"CC1(C)CCC(CN2CCN(c3ccc(C(=O)NS(=O)(=O)c4cnc(OCC5COCCO5)c(C#N)c4)c(Oc4cnc5[nH]ccc5c4)c3)CC2)=C(c2ccc(Cl)cc2)C1 (centres unmarked) [Example 49, 4-(4-{[2-(4-chlorophenyl)-4,4-dimethylcyclohex-1-en-1-yl]methyl}piperazin-1-yl)-N-{[5-cyano-6-(1,4-dioxan-2-ylmethoxy)pyridin-3-yl]sulfonyl}-2-(1H-pyrrolo[2,3-b]pyridin-5-yloxy)benzamide]",352
15,"CN1CCC(F)(COc2ncc(S(=O)(=O)NC(=O)c3ccc(N4CCN(CC5=C(c6ccc(Cl)cc6)CC(C)(C)CC5)CC4)cc3Oc3cnc4[nH]ccc4c3)cc2Cl)CC1 [Example 269, N-({5-chloro-6-[(4-fluoro-1-methylpiperidin-4-yl)methoxy]pyridin-3-yl}sulfonyl)-4-(4-{[2-(4-chlorophenyl)-4,4-dimethylcyclohex-1-en-1-yl]methyl}piperazin-1-yl)-2-(1H-pyrrolo[2,3-b]pyridin-5-yloxy)benzamide]",7.23
16,"CN(C)CC(=O)N1CCOC(CNc2ccc(S(=O)(=O)NC(=O)c3ccc(N4CCN(CC5=C(c6ccc(Cl)cc6)CC(C)(C)CC5)CC4)cc3Oc3cnc4[nH]ccc4c3)cc2[N+](=O)[O-])C1 (centres unmarked) [Example 215, 4-(4-{[2-(4-chlorophenyl)-4,4-dimethylcyclohex-1-en-1-yl]methyl}piperazin-1-yl)-N-{[4-({[4-(N,N-dimethylglycyl)morpholin-2-yl]methyl}amino)-3-nitrophenyl]sulfonyl}-2-(1H-pyrrolo[2,3-b]pyridin-5-yloxy)benzamide]",0.56
17,"CC1(C)CCC(CN2CCN(c3ccc(C(=O)NS(=O)(=O)c4ccc(OC[C@@H]5CN(C6COC6)C[C@H]5CF)c([N+](=O)[O-])c4)c(Oc4cnc5[nH]ccc5c4)c3)CC2)=C(c2ccc(Cl)cc2)C1 (relative stereo) [Example 137, 4-(4-{[2-(4-chlorophenyl)-4,4-dimethylcyclohex-1-en-1-yl]methyl}piperazin-1-yl)-N-[(4-{[trans-4-(fluoromethyl)-1-oxetan-3-ylpyrrolidin-3-yl]methoxy}-3-nitrophenyl)sulfonyl]-2-(1H-pyrrolo[2,3-b]pyridin-5-yloxy)benzamide]",12.7
18,"O=C(NS(=O)(=O)c1ccc(NCC2CCOCC2)c([N+](=O)[O-])c1)c1ccc(N2CCN(Cc3ccccc3-c3ccc(Cl)cc3)CC2)cc1Oc1cnc2[nH]ccc2c1 [Example 1, 4-{4-[(4′-chloro-1,1′-biphenyl-2-yl)methyl]piperazin-1-yl}-N-({3-nitro-4-[(tetrahydro-2H-pyran-4-ylmethyl)amino]phenyl}sulfonyl)-2-(1H-pyrrolo[2,3-b]pyridin-5-yloxy)benzamide]",712

# Same assay, conditions: Homo sapiens, RS4-11, Table 5, direct comparison Z=N with corresponding analogs Z=C; read-out: RS4; 11 EC50
row,SMILES,EC50 [nM]
1,"CC1(C)CCC(CN2CCN(c3ccc(C(=O)NS(=O)(=O)c4ccc(NC[C@H]5CCCOC5)c([N+](=O)[O-])c4)c(Oc4ccc5[nH]ccc5c4)c3)CC2)=C(c2ccc(Cl)cc2)C1 [Example 22, 4-(4-{[2-(4-chlorophenyl)-4,4-dimethylcyclohex-1-en-1-yl]methyl}piperazin-1-yl)-2-(1H-indol-5-yloxy)-N-[(3-nitro-4-{[(3R)-tetrahydro-2H-pyran-3-ylmethyl]amino}phenyl)sulfonyl]benzamide]",85
2,"O=C(NS(=O)(=O)c1ccc(NCC2CCOCC2)c([N+](=O)[O-])c1)c1ccc(N2CCN(Cc3ccccc3-c3ccc(Cl)cc3)CC2)cc1Oc1cnc2[nH]ccc2c1 [Example 1, 4-{4-[(4′-chloro-1,1′-biphenyl-2-yl)methyl]piperazin-1-yl}-N-({3-nitro-4-[(tetrahydro-2H-pyran-4-ylmethyl)amino]phenyl}sulfonyl)-2-(1H-pyrrolo[2,3-b]pyridin-5-yloxy)benzamide]",712
